These results are taken from patent US6762170B1, “2-(purin-9-yl)-tetrahydrofuran-3,4-diol derivatives” (SmithKlineBeecham Corporation, priority 1998, dated 2004).

SMILES strings stand for the structures. Counter-ions that a name gives are not always drawn.

Format in all cases: cell-based
For one experiment, the target named is T1, Adenosine 2a receptor (Homo sapiens, UniProt P29274).
T1 construct: expressed in transfected cells; host or cells: Chinese hamster ovary (CHO) cells, co-transfected with a CRE-SPAP reporter
As to the kind of experiment: Agonist activity against adenosine 2a receptor subtype (CHO cells, cAMP response element/SPAP reporter). As to conditions: EC50 ratio to NECA; transfected CHO cells, basal cAMP reflected by SPAP. The gist of the method: (§1)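 CHO cells expressed the human receptor plus a cAMP response element–driven SPAP reporter. Agonism was measured as SPAP change from forskolin-enhanced cAMP for A1 and A3, and from basal cAMP for A2a. EC50 is expressed as a ratio to that of NECA.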

The target of a further experiment is T2, Adenosine 1 receptor (Homo sapiens, UniProt P30542).
T2 construct: expressed in transfected cells; host or cells: Chinese hamster ovary (CHO) cells, co-transfected with a CRE-SPAP reporter
T2 sequence (P30542 1-326): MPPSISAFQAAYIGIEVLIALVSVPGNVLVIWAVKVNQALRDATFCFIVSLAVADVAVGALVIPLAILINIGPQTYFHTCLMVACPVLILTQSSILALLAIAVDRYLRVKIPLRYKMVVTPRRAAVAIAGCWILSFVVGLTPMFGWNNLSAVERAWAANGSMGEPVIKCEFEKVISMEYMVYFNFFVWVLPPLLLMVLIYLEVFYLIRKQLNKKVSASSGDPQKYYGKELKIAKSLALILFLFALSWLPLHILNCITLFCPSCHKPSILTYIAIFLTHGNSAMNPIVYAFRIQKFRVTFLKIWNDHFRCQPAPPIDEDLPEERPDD
Put plainly: Agonist activity against adenosine 1 receptor subtype (CHO cells, forskolin-enhanced cAMP, SPAP reporter). As to conditions: EC50 ratio to NECA; transfected CHO cells, forskolin-enhanced cAMP reflected by SPAP. A digest of the protocol: as §1

The target in the next experiment is T3, Adenosine 3 receptor (Homo sapiens, UniProt P0DMS8).
T3 construct: expressed in transfected cells; host or cells: Chinese hamster ovary (CHO) cells, co-transfected with a CRE-SPAP reporter
T3 sequence (P0DMS8 1-318): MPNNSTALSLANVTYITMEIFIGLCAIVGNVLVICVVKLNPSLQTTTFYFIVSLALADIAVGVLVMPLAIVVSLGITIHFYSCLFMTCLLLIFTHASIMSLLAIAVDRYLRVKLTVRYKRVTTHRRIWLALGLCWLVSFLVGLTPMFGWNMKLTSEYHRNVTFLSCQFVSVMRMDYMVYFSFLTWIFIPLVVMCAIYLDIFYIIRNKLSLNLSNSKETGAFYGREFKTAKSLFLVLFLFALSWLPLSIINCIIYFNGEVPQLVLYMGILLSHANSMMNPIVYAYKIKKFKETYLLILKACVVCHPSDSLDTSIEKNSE
As to the kind of experiment: Agonist activity against adenosine 3 receptor subtype (CHO cells, forskolin-enhanced cAMP, SPAP reporter). As to conditions: EC50 ratio to NECA; transfected CHO cells, forskolin-enhanced cAMP reflected by SPAP. A digest of the protocol: as §1

T1 sequence (P29274 whole entry): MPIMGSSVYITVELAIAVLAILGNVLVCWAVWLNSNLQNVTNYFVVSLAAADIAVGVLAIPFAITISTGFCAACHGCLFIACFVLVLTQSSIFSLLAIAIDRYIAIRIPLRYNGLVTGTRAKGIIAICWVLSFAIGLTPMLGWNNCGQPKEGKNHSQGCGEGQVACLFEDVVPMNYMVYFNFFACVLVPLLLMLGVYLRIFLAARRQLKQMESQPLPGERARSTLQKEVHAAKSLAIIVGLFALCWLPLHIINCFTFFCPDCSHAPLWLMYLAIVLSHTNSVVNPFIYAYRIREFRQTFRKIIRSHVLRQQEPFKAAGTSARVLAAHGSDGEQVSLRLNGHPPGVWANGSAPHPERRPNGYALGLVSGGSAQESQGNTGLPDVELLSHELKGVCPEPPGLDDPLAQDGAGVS

As to `CCc1cc(C2OC(n3cnc4c(NC5CCN(C(C)=O)CC5)nc(NC5CCC(N)CC5)nc43)C(O)C2O)on1` (stereo not drawn) [Example 29, 1-(4-{2-(trans-4-Amino-cyclohexylamino)-9-[5S-(3-ethyl-isoxazol-5-yl)-3R,4S-dihydroxy-tetrahydro-furan-2R-yl]-9H-purin-6-ylamino}-piperidin-1-yl)-ethanone diformate], the “A2a (EC50 values as a ratio of that of NECA)” value on Adenosine 2a receptor is recorded as 5.03. The “A1 (EC50 values as a ratio of that of NECA)” value at Adenosine 1 receptor amounted to 27.24. Besides, the “A3 (EC50 values as a ratio of that of NECA)” value on Adenosine 3 receptor is on record as more than 298.
The matching figures for `CCc1cc(C2OC(n3cnc4c(NC(CC)CC)nc(NC(CO)Cc5ccccc5)nc43)C(O)C2O)on1` [Example 35, (2S,3S,4R,5R)-2-(3-Ethyl-4-isoxazol-5-yl)-5-[6-(1-ethyl-propylamino)-2-(1S-hydroxymethyl-2-phenyl-ethylamino)-purin-9-yl]-tetrahydro-furan-3,4-diol formate]: 2.53, 89.16 and more than 223.
Regarding `CCc1cc([C@H]2O[C@@H](n3cnc4c(NCCC(C)(C)C)nc(NCCc5cn(C)cn5)nc43)[C@H](O)[C@@H]2O)on1.O=CO.O=CO` [Example 7, (2R,3R,4S,5S)-2-{6-(3,3-Dimethyl-butylamino)-2-[2-(1-methyl-1H-imidazol-4-yl)-ethylamino]-purin-9-yl}-5-(3-ethyl-isoxazol-5-yl)-tetrahydro-furan-3,4-diol diformate], the “A2a (EC50 values as a ratio of that of NECA)” value on Adenosine 2a receptor came to 0.35. Further, on Adenosine 1 receptor, the “A1 (EC50 values as a ratio of that of NECA)” value is listed as “>=309.4”. At Adenosine 3 receptor, the “A3 (EC50 values as a ratio of that of NECA)” value is on record as more than 312.
The matching figures for `CCc1cc([C@H]2O[C@@H](n3cnc4c(NCC(c5ccccc5)c5ccccc5)nc(NCCN5CCCCC5)nc43)[C@H](O)[C@@H]2O)on1.O=CO.O=CO` [Example 1, (2R,3R,4S,S)-2-[6-(2,2-Diphenyl-ethylamino)-2-(2-piperidin-1-yl-ethylamino)-purin-9-yl]-5-(3-ethyl-isoxazol-5-yl)-tetrahydro-furan-3,4-diol diformate]: 0.52, 288.5 and more than 436.
The matching figures for `CCC(CC)Nc1nc(NCCN2CCCCC2)nc2c1ncn2[C@@H]1O[C@H](c2cc(C(C)O)no2)[C@@H](O)[C@H]1O.O=CO.O=CO` (stereo partly drawn) [Example 54, (2R,3R,4S,5S)-2-[6-(1-Ethyl-propylamino)-2-(2-piperidin-1-yl-ethylamino)-purin-9-yl]-5-[3-(1-hydroxy-ethyl)-isoxazol-5-yl]-tetrahydro-furan-3,4-diol diformate]: 0.066, 10.18 and more than 350.
Turning to `CCc1cc(C2OC(n3cnc4c(NC(CO)C(C)C)nc(NCCN5CCCCC5)nc43)C(O)C2O)on1` [Example 70, (2S,3S,4R,5R)-2-(3-Ethyl-isoxazol-5-yl)-5-[6-(1(1S-hydroxymethyl-2-methyl-propylamino)-2-(2-piperidin-1-yl-ethylamino)-purin-9-yl]-tetrahydro-furan-3,4-diol diformate], on Adenosine 2a receptor, the “A2a (EC50 values as a ratio of that of NECA)” value is reported as 27.39. The “A1 (EC50 values as a ratio of that of NECA)” value on Adenosine 1 receptor is reported as 149.86. Further, the “A3 (EC50 values as a ratio of that of NECA)” value at Adenosine 3 receptor is on record as more than 184.
For `CCc1cc(C2OC(n3cnc4c(NC(CO)Cc5ccccc5)nc(NCCNc5ccccn5)nc43)C(O)C2O)on1` [Example 62, (2S,3S,4R,5R)-2-(3-Ethyl-isoxazol-5-yl)-5-{6-(1S-hydroxymethyl-2-phenyl-ethylamino)-2-[2-(pyridin-2-ylamino)-ethylamino]-purin-9-yl}-tetrahydro-furan-3,4-diol diformate], in that order: 1.03, 21.37 and more than 303.
For `CCc1cc([C@H]2O[C@@H](n3cnc4c(NC(CC)CC)nc(NCCNc5ccccn5)nc43)[C@H](O)[C@@H]2O)on1.O=CO.O=CO` [Example 53, (2S,3S,4R,5R)-2-(3-Ethyl-isoxazol-5-yl)-5-{6-(1-ethyl-propylamino)-2-[2-(pyridin-2-ylamino)-ethylamino]-purin-9-yl}-tetrahydro-furan-3,4-diol diformate], in that order: 2.11, 128.9 and more than 229.
